Series [1] can be described thus: HPLC analysis of thermal degradation of brinzolamide in extruded fibers. The conditions noted are these: PLGA microspheres (40%) extruded with poly(caprolactone) (60%). Type of series: physicochemical. An excerpt:
The active ingredient brinzolamide was microencapsulated in two poly(lactic acid-co-glycolic acid) (PLGA) copolymers, one having a molar ratio of 75/25 (PLGA7525) and one having a molar ratio of 85/15 (PLGA 8515) as discussed further below. The theoretical amount of active agent was 40% by weight in each microencapsulation formulation. The two microsphere formulations were extruded with a lower melting point polymer, poly(caprolactone) (CAPA686), wherein the microspheres were present at 40% by weight and the poly(caprolactone) was present at 60% by weight, forming fibers incorporating the microcapsules therein.

Series [2] is described as follows: Drug degradation on direct melt processing (extrusion) with PLGA. Type of series: physicochemical. The conditions noted are these: directly melt processed by extrusion with poly(lactic acid-co glycolic acid) at 75:25 and 85:15 molar ratios, 140° C.-160° C. Here is the method: For example, about 5% drug degradation was found when brinzolamide, having a melting point in the range of 130-131° C. was directly melt processed by extrusion with poly(lactic acid-co glycolic acid) at 75:25 and 85:15 molar ratios. Melt processing temperatures of the poly(lactic-co glycolic acid) were in the range of 140° C.-160° C.

With `CCN[C@H]1CN(CCCOC)S(=O)(=O)c2sc(S(N)(=O)=O)cc21` [brinzolamide, (R)-(+)-4-Ethylamino-2-(3-methoxypropyl)-3,4-dihydro-2H-thieno[3,2-e]-1,2-thiazine-6-sulfonamide-1,1-dioxide], the “thermal degradation of brinzolamide in the fibers” value in series [1] is recorded as “absence of thermal degradation”. For the same compound, the drug degradation result in series [2] is given as “about 5%”.

These data come from patent US9040080B2, “Processing of heat-sensitive active agents” (SOUTHWEST RESEARCH INSTITUTE, priority 2008, dated 2015).
